Measurements published in PMC10627047, “Flavone-based dual PARP-Tubulin inhibitor manifesting efficacy against endometrial cancer” (Journal of Enzyme Inhibition and Medicinal Chemistry, 2023).

What was measured:
[1] = test system: CDK1 protein in Ishikawa cells; test: Western blotting, cell cycle proteins; format: cell-based, human; details: 24 h treatment
Experimental: Western blot analysis was performed to assess the involvement of proteins in the cell cycle arrest effects of compound 14 on Ishikawa cells.
Ishikawa cells were treated with compound-14 at 100, 500, and 1000 nM concentrations for 24 h. After 24h cells were collected and centrifuged at 400 g, washed in PBS and cell pellets were lysed in RIPA buffer in preparation of the whole cell lysate. Supernatants were collected and proteins were estimated using the Bradford reagent. An equal amount of protein (60–80 µg) was loaded into each well for SDS-PAGE. Blocking was done with 5% BSA at room temperature with shaking for 2 h. After the SDS page run was completed, we washed the PVDF membrane and then blocking was done. Blots were incubated with different primary antibodies(1:1000 dilutions), and secondary antibodies (1:10 000 dilutions) and chemiluminescence was captured on Chemidoc after incubating the blots in ECL plus solution.
Primary Antibodies: LC3B Antibody (Cell signalling Technology, Cat No:2775), Cyclin B1 (Cell signalling Technology, Cat No:4138), SKP-2 (Cell signalling Technology, Cat No:4358), CDK1 (Abcam, Anti-CDK1 antibody [A17]), cdc25c (Cell signalling Technology, Cat No:4688); internal control: Actin (Sigma Aldrich, Cat No: A5441);

Ishikawa cells [2] = test: Nuclear and cellular morphology (DAPI staining), apoptosis; format: cell-based, human; details: Ishikawa cells, 0.1, 0.5 and 1 μM, 24 h
Experimental: Ishikawa cell lines were treated with compound 14 at concentrations of 0.1, 0.5, and 1 μM for 24 h. Cellular morphology was observed by an inverted microscope. DAPI staining was done to monitor the nuclear morphology. […] Thus, the results were indicative of the apoptosis-inducing ability of compound 14 (Figure 9).
Ishikawa was treated with compounds 14 at concentrations of 0.1, 0.5, and 1 μM for 24 h. Briefly, cells were collected, washed twice with PBS, and fixed with methanol: acetic acid (3:1 ratio v/v). The next day, cells were washed and dispensed in 50 μL of fixing solution. Cells were then spread on clean slides, and exposed to DAPI solution (4′,6-diamidino-2-phenylindole(DAPI) (CAS Number: 28718–90-3) (5 μg/mL in 0.01 M citric acid and 0.45 M disodium phosphate containing 0.05% Tween 20) for 30 min at room temperature. The slides were then rinsed with distilled water for 10 min, and washed with PBS. After drying, the slides were mounted with glycerol: PBS (1:1 ratio v/v) and observed under the fluorescent microscope to figure out any nuclear morphological changes that occur during apoptosis.[60]

Ishikawa cells [3] = test: Cell cycle analysis (flow cytometry); format: cell-based, human; details: 0.5 µM and 1 µM, 48 h, vs control group
Experimental: Furthermore, the regulatory effect of compound 14 in the cell cycle distribution of Ishikawa cancer cells was evaluated via flow cytometric analysis. Ishikawa cells seeded on a 6-well plate (3 × 10^5 cells/well) were treated with compound 14 for 48 h. After 48 h treatment of Ishikawa cells with compound 14, the cell cycle started to be arrested at the G2/M phase.
Cells were treated with compound 14 (10, 50, 100, 500 and 1000 nM) for […], collected and washed once with PBS. The pellet was then fixed in 70% ethanol overnight, followed by one washing with PBS and incubation with RNAse A for 90 min at 37 °C. Cells were then stained with PI and acquired in FACS. Analysis of the data was done by Modfit software (Verity Software House Inc., Topsham, ME) for the proportions of different cell cycle phases.[69]

Ishikawa cell lines = test: In-vitro cytotoxicity (MTT cell viability assay); format: cell-based; details: Homo sapiens; Ishikawa cell lines, MTT, 48 h incubation, mean ± SD, at least three experiments; read-out: IC50 values (Ishikawa cell lines, µM ± SD), in-vitro growth inhibition
Experimental: The cell growth inhibitory effects of the synthesised compounds were evaluated against Ishikawa cell lines. […] Forth, the synthesised compounds bearing a substituted phenyl ring at position 2 of the biaryl arm bearing benzopyrans were profiled for the cytotoxic effects. Noteworthy to mention that diverse substitutions with varied electronic effects viz fluorine (−I, +R), methoxy (−I, +R), and nitro (−I and − R) were made on the phenyl ring (position 2 of benzopyran). Also, the trimethoxy phenyl ring well established as an imperative structural feature of tubulin inhibitors was tethered to the benzopyran scaffold (20, 21).
Ishikawa cells (a human endometrial carcinoma of the epithelial cell) were kindly gifted by Dr. Geetanjali Sachdeva and Dr. Uddhav Chaudhari of National Institute for Research In Reproductive and Child Health (NIRRCH), Mumbai. […] The cells were maintained in RPMI medium supplemented with 10% Foetal bovine serum (FBS) and 100 IU/mL penicillin.
Mitochondrial activity was evaluated by MTT assay.[59] This assay is based on enzymatic reduction of the yellow-colored MTT dye to purple-colored formazan crystals by a variety of mitochondrial and cytosolic enzymes that are operational in viable cells. Briefly, […] (3000 cells/well) were seeded in 100 µL of medium into a 96-well plate and left to settle in a CO2 incubator. […] Then 150 μL of DMSO was added to each well to dissolve the formazan crystals. The optical density (OD) of each well was recorded using a microplate reader at a wavelength of 570 nm. The percentages of cell viability and growth inhibition were calculated according to the following equations. Cell viability (%) = [(OD of treated cells-OD of blank)/(OD of control-OD of blank) ×100].

## O=c1cc(-c2ccc(F)cc2)oc2cc(-c3ccoc3)ccc12 [Compound 14, 2–(4-fluorophenyl)-7-(furan-3-yl)-4H-chromen-4-one]
[1]
  Expression of CDK1 protein (western blot): downregulated the expression of CDK1 protein
Ishikawa cells [2]
  Apoptosis induction (nuclear morphology, DAPI staining): concentration-dependent increase in the number of scattered apoptotic bodies
Ishikawa cells [3]
  Cell cycle distribution (G2/M phase arrest): significant increase in G2/M phase cell cycle arrest
Ishikawa cell lines
  IC50: 1 ± 0.4 µM
